SMILES strings stand for the structures.

The source of these data is patent publication EP0928793B1, “Thiazole derivatives” (F. HOFFMANN-LA ROCHE AG, priority 1998, dated 1999).

T1 sequence (P06756 31-889 limits assumed): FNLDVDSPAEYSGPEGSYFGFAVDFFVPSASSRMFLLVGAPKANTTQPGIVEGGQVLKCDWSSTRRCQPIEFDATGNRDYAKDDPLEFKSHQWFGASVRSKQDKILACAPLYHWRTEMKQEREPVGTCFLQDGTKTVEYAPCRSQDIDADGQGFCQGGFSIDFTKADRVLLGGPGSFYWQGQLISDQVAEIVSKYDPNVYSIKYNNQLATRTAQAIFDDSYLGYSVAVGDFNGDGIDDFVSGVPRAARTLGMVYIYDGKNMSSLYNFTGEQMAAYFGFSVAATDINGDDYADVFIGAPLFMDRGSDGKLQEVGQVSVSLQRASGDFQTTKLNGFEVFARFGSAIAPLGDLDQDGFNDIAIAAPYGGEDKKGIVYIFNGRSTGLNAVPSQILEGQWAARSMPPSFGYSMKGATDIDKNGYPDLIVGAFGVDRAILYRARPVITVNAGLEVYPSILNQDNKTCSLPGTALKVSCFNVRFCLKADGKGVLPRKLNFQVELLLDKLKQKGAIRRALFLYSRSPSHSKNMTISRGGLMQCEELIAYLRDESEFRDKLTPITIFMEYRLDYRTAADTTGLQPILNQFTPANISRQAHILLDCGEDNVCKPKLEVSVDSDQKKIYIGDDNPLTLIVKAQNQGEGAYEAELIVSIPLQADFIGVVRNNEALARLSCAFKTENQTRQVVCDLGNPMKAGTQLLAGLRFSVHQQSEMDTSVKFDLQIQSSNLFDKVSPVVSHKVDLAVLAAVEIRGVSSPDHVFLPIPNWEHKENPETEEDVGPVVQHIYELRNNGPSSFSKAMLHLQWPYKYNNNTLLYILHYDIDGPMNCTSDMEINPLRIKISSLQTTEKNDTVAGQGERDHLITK
T1 sequence (P06756 891-1048 partner limits assumed): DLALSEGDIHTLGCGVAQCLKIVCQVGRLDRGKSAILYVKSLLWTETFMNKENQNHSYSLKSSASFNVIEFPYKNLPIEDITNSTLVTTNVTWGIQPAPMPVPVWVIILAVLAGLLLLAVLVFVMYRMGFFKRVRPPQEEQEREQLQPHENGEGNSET
T1 sequence (P05106 27-788): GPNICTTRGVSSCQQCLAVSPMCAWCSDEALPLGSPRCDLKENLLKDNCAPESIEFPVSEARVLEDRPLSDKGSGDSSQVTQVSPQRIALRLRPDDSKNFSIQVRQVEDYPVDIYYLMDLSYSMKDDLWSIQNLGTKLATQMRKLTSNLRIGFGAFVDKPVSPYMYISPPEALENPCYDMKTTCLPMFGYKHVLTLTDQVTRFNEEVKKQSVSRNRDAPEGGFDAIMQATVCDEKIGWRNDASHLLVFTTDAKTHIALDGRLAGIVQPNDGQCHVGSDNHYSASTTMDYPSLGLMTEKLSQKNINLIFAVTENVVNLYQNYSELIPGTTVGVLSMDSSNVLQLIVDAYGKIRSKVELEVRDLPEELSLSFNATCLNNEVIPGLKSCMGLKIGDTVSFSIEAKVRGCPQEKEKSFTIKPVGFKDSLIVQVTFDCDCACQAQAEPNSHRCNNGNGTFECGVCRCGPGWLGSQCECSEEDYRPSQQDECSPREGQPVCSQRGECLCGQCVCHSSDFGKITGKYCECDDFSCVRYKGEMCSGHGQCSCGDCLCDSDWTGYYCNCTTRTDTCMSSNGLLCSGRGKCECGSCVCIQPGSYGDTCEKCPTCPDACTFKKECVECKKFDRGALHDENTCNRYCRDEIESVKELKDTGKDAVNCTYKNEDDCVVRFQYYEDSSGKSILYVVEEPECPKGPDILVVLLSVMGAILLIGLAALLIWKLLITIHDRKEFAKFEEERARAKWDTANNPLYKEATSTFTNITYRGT

The assay concerns the target T1, vitronectin receptor αvβ3 (Homo sapiens, UniProt P05106+P06756).
T1 construct: Human placenta is stored at -80°C immediately after its excision; In order to extract the receptor; from tissue; host or cells: human placenta
Kind of assay: Inhibition of fibrinogen binding to immobilised vitronectin receptor αvβ3 (ELISA). The following applies: fibrinogen 1.5 µg/ml, receptor from human placenta coated on microtitre plates, overnight at room temperature, ELISA detection; read-out: VNR IC50. Here is the method:
The inhibition of the binding of adhesive proteins such as e.g. fibrinogen to vitronectin receptors (such as e.g. αvβ3, αvβ5, αvβ6, αvβ8, etc. or to the fibrinogen receptor (αIIbβ3) by compounds of formula I can be determined as described by L. Alig et al. (J.Med.Chem. 1992, 35, 4393-4407).
In detail thereto, the wells of microtitre plates (Nunc-Immunoplate MaxiSorp) were coated overnight at 4°C with the vitronectin receptor αvβ3 (from human placenta, 100 µl/well) in a buffer system with 150 mmol/l NaCl, 1 mmol/CaCl2, 1 mmol/l MgCl2, 0.0005% Triton X-100 and 20 mmol/l Tris HCl, pH 7.4. The non-specific binding sites were blocked by incubation with 3.5% bovine serum albumin (BSA from Fluka) at 20°C for at least 1 h. Before the beginning of the test the plates were washed in each case once with 150 mmol/l NaCl, 1 mmol/l CaCl2, 1 mmol/l MgCl2 and 20 mmol/l Tris HCI, pH 7.4 (buffer A). The thus-coated plates can be stored for at least 2 months in the presence of 0.05% NaN3 (in buffer A) at 4°C in a humidity chamber without loss of binding activity. Fibrinogen (IMCO, free from fibronectin) was diluted to 1.5 µg/ml in buffer A in the presence of 1% BSA. The wells coated with the receptor were incubated with fibrinogen (100 µl/well) overnight at room temperature in the absence of or in the presence of increasing concentrations of RGDS (as the reference substance) or the compounds to be measured. Non-bound fibrinogen was removed by three-fold washing with buffer A and bound fibrinogen was detected by an ELISA procedure. Antibodies of rabbits directed against human fibrinogen (Dakopatts, Denmark), diluted in buffer A in the presence of 0.1% BSA, were added at room temperature for 1h., followed by incubation with biotinylated antibodies directed against rabbit immunoglobulin (Amersham) for 30 min. Non-bound antibodies were removed by three-fold washing with buffer A. Thereafter, the pre-formed streptavidin-biotinylated peroxidase complex (Amersham) was added for 30 min. Three-fold washing with buffer A was again carried out. After addition of the peroxidase substrate ABTS (2,2'-azino-bis(3-ethylbenzothiazoline-6-sulphonic acid), Boehringer Mannheim) the enzyme activity was measured with a multichannel photometer (UVmax, Molecular Devices). The difference between total binding activity (in the absence of a test substance) and non-specific binding activity (in the presence of 100 µM RGDS) is taken as the specific binding activity. The concentration of a test substance which is required to inhibit the specific binding activity by 50% was defined as the IC50.
The isolation of the receptor avb3 used in the test can be carried out as follows: Human placenta is stored at -80°C immediately after its excision. In order to extract the receptor, each placenta is superficially thawed and cut into narrow strips with a scalpel. The pieces are washed twice with a buffer of 150 mmol/l NaCl, 1 mmol/l CaCl2, 1 mmol/l MgCl2 and 20 mmol/l Tris HCl (pH 7.4). The proteins are extracted at room temperature for one hour with a buffer solution from 1% Triton X-100, 150 mmol/l NaCl, 1 mmol/l CaCl2, 1 mmol/l MgCl2, 20 mmol/l Tris HCl, 0.02% NaN3, 0.5 mmol/l phenylmethanesulphonyl fluoride, 1 mmol/l leupeptin and 2 mmol/l N-ethylmaleimide (pH 7.4) and filtered through sterile gauze. The filtrate is centrifuged at 30000 g for 30 min. at 4°C. The glycoproteins are firstly separated with the aid of a concanavalin A-Sepharose 4B column. The proteins bound to the column are eluted and then added to a Aeg-RGDS column. After repeated washing the bound vitronectin receptor is eluted by 3 mmol/l RGDS in a buffer of 0.1% Triton X-100, 150 mmol/l NaCl, 20 mmol/l Tris HCl, 1 mmol/l CaCl2, 1 mmol/l MgCl2, 0.05% NaN3 (pH 7.0).
The term IC50 denotes the concentration at which inhibition is half-maximal. Turning to `Cc1nc(NC(=N)N)sc1C(=O)N1CCC[C@@H](COCC(=O)O)C1` [(R)-[1-(2-guanidino-4-methyl-thiazole-5-carbonyl)-piperidin-3-ylmethoxy]-acetic acid], the IC50 turned out to be 50 nM.

Turning to `CCCc1nc(N=C(N)N)sc1C(=O)N1CCCC(COCC(=O)O)C1` (racemic) [rac [1-(2-guanidino-4-propyl-thiazole-5-carbonyl)-piperidin-3-ylmethoxy]-acetic acid], the IC50 came out at 18 nM.

Regarding `NC(N)=Nc1nc(C2CCCC2)c(C(=O)N2CCCC(COCC(=O)O)C2)s1` (racemic) [rac [1-(4-cyclopentyl-2-guanidino-thiazol-5-ylcarbonyl)-piperidin-3-ylmethoxy]-acetic acid], the IC50 worked out at 90 nM.

For `NC(N)=Nc1nc(-c2ccccc2)c(C(=O)N2CCCC(COCC(=O)O)C2)s1` (racemic) [rac [1-(2-guanidino-4-phenyl-thiazole-5-carbonyl)-piperidin-3-ylmethoxy]-acetic acid], the IC50 turned out to be 70 nM.

Regarding `Cc1nc(N=C(N)N)sc1C(=O)N1CCCC(COCC(=O)O)C1` (racemic) [rac [1-(2-guanidino-4-methyl-thiazole-5-carbonyl)-piperidin-3-ylmethoxy]-acetic acid], the IC50 was found to be 39 nM.

As to `CC(C)(C)c1nc(N=C(N)N)sc1C(=O)N1CCCC(COCC(=O)O)C1` (racemic) [rac [1-(4-tert-butyl-2-guanidino-thiazole-5-carbonyl)-piperidin-3-ylmethoxy]-acetic acid], the IC50 was found to be 22 nM.
